Reference: patent US12729377B2, “RNAi agents and compositions for inhibiting expression of angiopoietin-like 3 (ANGPTL3), and methods of use” (Arrowhead Pharmaceuticals, Inc., priority 2017, dated 2026)
In the oligonucleotide strings, read from the 5' end, every base follows the letter of its sugar. An asterisk marks phosphorothioate; unmarked linkages are phosphodiester. Other units and linkages are bracketed, terminal groups are in braces. A string of capitals states the bases alone. {NAG37} = tridentate N-acetyl-galactosamine targeting ligand, structure (NAG37)s; [invAb] = inverted abasic unit; m = 2'-O-methyl; f = 2'-fluoro

Legend:
[1] = tested on: ANGPTL3 gene; assay: Example 11: dose response, serum LDL in mice; format: in vivo, C57bl/6 mice
Method: To assess the dose response of ANGPTL3 RNAi agent AD05488, six- to eight-week-old female C57bl/6 mice were used. Pre-dose serum samples were taken at day −1 after a four hour fast. At day 1, each mouse was given a single subcutaneous administration of 200 μl containing the respective mg/kg dose of an ANGPTL3 RNAi agent in D5W (dextrose in 5% water), or control (D5W) with no RNAi agent, according to the dosing groups recited in Table 53:
The RNAi agent tested (AD05488) included a modified sequence and an N-acetyl-galactosamine-containing targeting ligand conjugated to the 5′ terminal end of the sense strand. (See Tables 3, 4, and 5 for modified sequences and targeting ligand structures). The injections were performed between the skin and muscle (i.e. subcutaneous injections) into the loose skin over the neck and shoulder area. Four (4) mice in each group were tested (n=4). Serum was collected on days 8, 15, 22, and 29. Mice were fasted for four hours prior to each collection. ANGPTL3 protein levels in serum were measured by ELISA assay (R&D Systems), according to the manufacturer's recommendations. Triglycerides, total cholesterol, high-density lipoprotein (HDL), and low-density lipoprotein (LDL) in serum were measured on a Cobas® Integra 400 (Roche Diagnostics), according to the manufacturer's recommendations.
The ANGPTL3 protein levels, triglyceride levels, total cholesterol levels, HDL levels, and LDL levels for each animal were normalized. For normalization, the level of ANGPTL3 protein, triglyceride, HDL, and total cholesterol, respectively, for each animal at a time point, was divided by the pre-treatment level of expression in that animal (in this case at day −1) to determine the ratio of expression “normalized to pre-treatment.” Expression at a specific time point was then normalized to the D5W control group by dividing the “normalized to pre-treatment” ratio for an individual animal by the mean “normalized to pretreatment” ratio of all mice in the D5W control group.

[2] = tested on: ANGPTL3 gene; assay: Example 14: RNAi agent and statin, serum triglycerides in LDLR knockout mice; format: in vivo, LDLR KO mice
Text: To evaluate the effect of co-administration of RNAi agents and statins in a disease model, LDLR KO mice were commercially obtained (The Jackson Laboratory). For three weeks prior to the onset of the study, forty-one (41) male 7 to 8 week old LDLR KO mice were placed on a high fat (“western”) diet (Teklad Custom Diets TD.88137), and remained on that diet throughout the duration of the study. Pre-dose serum samples were taken on study Day 1 after a four hour fast. The dosing regimen for the study is recited in the following Table 72:
• Mice were treated at 40 mg/kg for the first 11 days, then switched to 20 mg/kg thereafter.
The vehicle used for the oral gavage in the study was a 1:1 mixture of Ora-Plus®: Ora-Sweet® solution, which were acquired commercially. For the preparation of the atorvastatin oral gavage administrations, the respective desired dose of atorvastatin was first dissolved in sterile water (0.3 mL water per 1 mL of desired formulation) and vortexed until smooth, followed by the addition of a mixture of 1:1 Ora-Plus®: Ora-Sweet® solution (0.7 mL vehicle per 1 mL of desired formulation) and vortexed. On day 1 and for each day thereafter an oral gavage dose was administered for each of the Groups except for Group 2. On Day 23, Groups 1, 2, 3, and 4 received a single subcutaneous administration of 2.5 mg/kg dose ([…] solution) of an ANGPTL3 RNAi agent in D5W (dextrose in 5% water), or vehicle control (D5W) with no RNAi agent.
The RNAi agent tested (AD05488) included a modified sequence and an N-acetyl-galactosamine-containing targeting ligand conjugated to the 5′ terminal end of the sense strand. (See Tables 3, 4, and 5 for modified sequences and targeting ligand structures). The injections were performed between the skin and muscle (i.e. subcutaneous injections) into the loose skin over the neck and shoulder area. Serum was collected on days 8, 15, 22 (pre-RNAi agent injection), 29, 36, 43, and 50. LDLR KO mice were fasted for four hours prior to each collection.
ANGPTL3 protein levels in serum were measured by ELISA assay (R&D Systems), according to the manufacturer's recommendations. Among other biomarkers, triglycerides, total cholesterol, and low-density lipoprotein (LDL) in serum were measured on a Cobas® Integra 400 (Roche Diagnostics), according to the manufacturer's recommendations.
The ANGPTL3 protein levels, triglyceride levels, total cholesterol levels, HDL levels, and LDL levels for each animal were normalized. For normalization, respective levels of ANGPTL3 protein, TG, total cholesterol, or LDL for each animal at a time point was divided by the pre-treatment level of expression in that animal (in this case pre-dose levels on Day 1) to determine the ratio of expression “normalized to pre-treatment.” Data from the study set forth in this Example are shown in the following Tables 73-76: […]

Substance: AD05488: RNAi agent duplex: antisense AM07235-AS, sense AM07234-SS (antisense mU*fA*mC*fUmGfAmUfCmAfAmAfUmAfUmGfUmUfGmAfG*mC; sense {NAG37}*[invAb]*mGmCmUmCmAmAmCmAfUfAfUmUmUmGmAmUmCmAmGmUmA*[invAb])
- Avg LDL Normalized to Pre-Treatment and Control ([1]; 0.05 mg/kg single sc day 1, Day 8): 0.798
- Avg LDL Normalized to Pre-Treatment and Control ([1]; 0.05 mg/kg single sc day 1, Day 15): 1.147
- Avg LDL Normalized to Pre-Treatment and Control ([1]; 0.05 mg/kg single sc day 1, Day 22): 0.772
- Avg LDL Normalized to Pre-Treatment and Control ([1]; 0.05 mg/kg single sc day 1, Day 29): 0.822
- Avg LDL Normalized to Pre-Treatment and Control ([1]; 0.1 mg/kg single sc day 1, Day 8): 0.878
- Avg LDL Normalized to Pre-Treatment and Control ([1]; 0.1 mg/kg single sc day 1, Day 15): 1.153
- Avg LDL Normalized to Pre-Treatment and Control ([1]; 0.1 mg/kg single sc day 1, Day 22): 0.732
- Avg LDL Normalized to Pre-Treatment and Control ([1]; 0.1 mg/kg single sc day 1, Day 29): 0.845
- Avg LDL Normalized to Pre-Treatment and Control ([1]; 0.5 mg/kg single sc day 1, Day 8): 0.816
- Avg LDL Normalized to Pre-Treatment and Control ([1]; 0.5 mg/kg single sc day 1, Day 15): 1.137
- Avg LDL Normalized to Pre-Treatment and Control ([1]; 0.5 mg/kg single sc day 1, Day 22): 0.866
- Avg LDL Normalized to Pre-Treatment and Control ([1]; 0.5 mg/kg single sc day 1, Day 29): 0.896
- Avg LDL Normalized to Pre-Treatment and Control ([1]; 1.0 mg/kg single sc day 1, Day 8): 0.760
- Avg LDL Normalized to Pre-Treatment and Control ([1]; 1.0 mg/kg single sc day 1, Day 15): 1.145
- Avg LDL Normalized to Pre-Treatment and Control ([1]; 1.0 mg/kg single sc day 1, Day 22): 0.993
- Avg LDL Normalized to Pre-Treatment and Control ([1]; 1.0 mg/kg single sc day 1, Day 29): 1.123
- Avg LDL Normalized to Pre-Treatment and Control ([1]; 2.5 mg/kg single sc day 1, Day 8): 0.805
- Avg LDL Normalized to Pre-Treatment and Control ([1]; 2.5 mg/kg single sc day 1, Day 15): 1.185
- Avg LDL Normalized to Pre-Treatment and Control ([1]; 2.5 mg/kg single sc day 1, Day 22): 0.915
- Avg LDL Normalized to Pre-Treatment and Control ([1]; 2.5 mg/kg single sc day 1, Day 29): 0.814
- Avg LDL Normalized to Pre-Treatment and Control ([1]; 5.0 mg/kg single sc day 1, Day 8): 0.802
- Avg LDL Normalized to Pre-Treatment and Control ([1]; 5.0 mg/kg single sc day 1, Day 15): 1.170
- Avg LDL Normalized to Pre-Treatment and Control ([1]; 5.0 mg/kg single sc day 1, Day 22): 0.909
- Avg LDL Normalized to Pre-Treatment and Control ([1]; 5.0 mg/kg single sc day 1, Day 29): 0.932
- Avg TG normalized to pre-treatment ([2]; Group 2: no gavage, 2.5 mg/kg AD05488 SC on day 23, Day 8 (pre-RNAi agent injection)): 0.988
- Avg TG normalized to pre-treatment ([2]; Group 2: no gavage, 2.5 mg/kg AD05488 SC on day 23, Day 15 (pre-RNAi agent injection)): 1.247
- Avg TG normalized to pre-treatment ([2]; Group 2: no gavage, 2.5 mg/kg AD05488 SC on day 23, Day 22 (pre-RNAi agent injection)): 1.524
- Avg TG normalized to pre-treatment ([2]; Group 2: no gavage, 2.5 mg/kg AD05488 SC on day 23, Day 29): 0.166
- Avg TG normalized to pre-treatment ([2]; Group 2: no gavage, 2.5 mg/kg AD05488 SC on day 23, Day 36): 0.125
- Avg TG normalized to pre-treatment ([2]; Group 2: no gavage, 2.5 mg/kg AD05488 SC on day 23, Day 43): 0.139
- Avg TG normalized to pre-treatment ([2]; Group 2: no gavage, 2.5 mg/kg AD05488 SC on day 23, Day 50): 0.153
- Avg TG normalized to pre-treatment ([2]; Group 3: 10 mg/kg daily oral gavage atorvastatin, 2.5 mg/kg AD05488 on day 23, Day 8 (pre-RNAi agent injection)): 0.613
- Avg TG normalized to pre-treatment ([2]; Group 3: 10 mg/kg daily oral gavage atorvastatin, 2.5 mg/kg AD05488 on day 23, Day 15 (pre-RNAi agent injection)): 0.436
- Avg TG normalized to pre-treatment ([2]; Group 3: 10 mg/kg daily oral gavage atorvastatin, 2.5 mg/kg AD05488 on day 23, Day 22 (pre-RNAi agent injection)): 0.614
- Avg TG normalized to pre-treatment ([2]; Group 3: 10 mg/kg daily oral gavage atorvastatin, 2.5 mg/kg AD05488 on day 23, Day 29): 0.072
- Avg TG normalized to pre-treatment ([2]; Group 3: 10 mg/kg daily oral gavage atorvastatin, 2.5 mg/kg AD05488 on day 23, Day 36): 0.058
- Avg TG normalized to pre-treatment ([2]; Group 3: 10 mg/kg daily oral gavage atorvastatin, 2.5 mg/kg AD05488 on day 23, Day 43): 0.076
- Avg TG normalized to pre-treatment ([2]; Group 3: 10 mg/kg daily oral gavage atorvastatin, 2.5 mg/kg AD05488 on day 23, Day 50): 0.065
- Avg TG normalized to pre-treatment ([2]; Group 4: 20 mg/kg* daily oral gavage atorvastatin (40 mg/kg first 11 days), 2.5 mg/kg AD05488 on day 23, Day 8 (pre-RNAi agent injection)): 0.567
- Avg TG normalized to pre-treatment ([2]; Group 4: 20 mg/kg* daily oral gavage atorvastatin (40 mg/kg first 11 days), 2.5 mg/kg AD05488 on day 23, Day 15 (pre-RNAi agent injection)): 0.526
- Avg TG normalized to pre-treatment ([2]; Group 4: 20 mg/kg* daily oral gavage atorvastatin (40 mg/kg first 11 days), 2.5 mg/kg AD05488 on day 23, Day 22 (pre-RNAi agent injection)): 0.748
- Avg TG normalized to pre-treatment ([2]; Group 4: 20 mg/kg* daily oral gavage atorvastatin (40 mg/kg first 11 days), 2.5 mg/kg AD05488 on day 23, Day 29): 0.071
- Avg TG normalized to pre-treatment ([2]; Group 4: 20 mg/kg* daily oral gavage atorvastatin (40 mg/kg first 11 days), 2.5 mg/kg AD05488 on day 23, Day 36): 0.058
- Avg TG normalized to pre-treatment ([2]; Group 4: 20 mg/kg* daily oral gavage atorvastatin (40 mg/kg first 11 days), 2.5 mg/kg AD05488 on day 23, Day 43): 0.089
- Avg TG normalized to pre-treatment ([2]; Group 4: 20 mg/kg* daily oral gavage atorvastatin (40 mg/kg first 11 days), 2.5 mg/kg AD05488 on day 23, Day 50): 0.082
- effects on lipid parameters ([2]; co-administration of atorvastatin (Groups 3 and 4), LDLR KO mice on high fat diet): additive effects
- total reductions in triglycerides ([2]; co-administration of atorvastatin and RNAi agent (Groups 3 and 4), LDLR KO mice on high fat diet): ~ 95%
